Measurements as given in patent US6221901A, “Magnesium (-)hydroxycitrate, method of preparation, applications, and compositions in particular pharmaceutical containing same” (priority 1996, dated 2001).
Like-named read-outs stand apart in the source and are kept apart here.

Legend:
[1] = system: human epithelial cells and rat arterial smooth muscle cells; experiment: Mortality of human epithelial cells and of rat arterial smooth muscle cells (antioxidant effect, model of oxygen toxicity); assay type: cell-based; conditions: for protective effect on cell mortality: result in words; for Reduction in percentages: cell mortality: in culture medium: (-)hydroxycitrate 0.1 mM, silicon 0.036 mM, magnesium 0.1 mM
Experimental: (§1) 1) Study of the Mortality of Human Epithelial Cells and of Rat Arterial Smooth Muscle Cells.
The antioxidant effects of (-)hydroxycitrate and of different minerals were tested according to the protocol described by Michiels et al: "A new experimental model to study oxygen toxicity", Arch. int. Physiol. Biochem. 94 (5), S13-S18, 1986, using rat hepatocytes, as well as human epithelial cells and rat arterial smooth muscle cells.
(§2) The various products were respectively tested at the following concentrations: […]

[2] = system: rat arterial smooth muscle cells; experiment: Accumulation of intracellular lipids in arterial smooth muscle cells; assay type: cell-based; conditions: for Reduction in percentages: accumulation of lipids: in culture medium: (-)hydroxycitrate 0.1 mM, silicon 0.036 mM, magnesium 0.1 mM
Experimental: as §1
(§3) The inhibitory effects of these compounds on the proliferation of arterial smooth muscle and on the accumulation of intracellular lipids was also tested using the method described by Shrivastava et al. in Meth. Find. Exp. Clin. Pharmacol. 15 (6), pages 345-350, 1993.
as §2

[3] = system: rat arterial smooth muscle cells; experiment: Proliferation of arterial smooth muscle cells; assay type: cell-based; conditions: for Reduction in percentages: proliferation of cells: in culture medium: (-)hydroxycitrate 0.1 mM, silicon 0.036 mM, magnesium 0.1 mM
Experimental: as §1, §3, §2

[4] = literature, Majeed et al. 1994; in words; cited from earlier work
[5] = system: hypercholesterolemic rabbits; experiment: Effect in vivo on the cholesterol level in hypercholesterolemic rabbits; parameters: species or system rabbit; conditions: 750 mg/kg oral
Experimental: (§4) 2) Study of the Effect in vivo on the Cholesterol Level and on Lipidic Deposits in Hypercholesterolemic Rabbits.
(§5) Two batches of 20 male rabbits (Elevage scientifique des Dombes: 2.5-3 kg) received a cholesterol-rich food (1%) for a period of 8 weeks. The first batch were not treated and therefore served as a control while the second batch received 750 mg/kg of magnesium (-)hydroxycitrate by oral route.

[6] = system: wall of the aorta, hypercholesterolemic rabbits; experiment: Lipidic deposits on the wall of the aorta in hypercholesterolemic rabbits; assay type: in vivo, rabbit; conditions: 750 mg/kg oral
Experimental: as §4, §5

[7] = system: hypercholesterolemic rabbit; assay type: in vivo
Experimental: 3) Study of Antiatherosclerotic Effects in the Hypercholesterolemic Rabbit.
Two batches of 15 male rabbits (Elevage scientifique des Dombes: 2.5-3 kg) received a cholesterol-rich food: 0.2% for the period D+8 to D+37, then 1% until D+69, when the animals are sacrificed.
The first batch was not treated and therefore served as a control while the second batch received 500 mg/kg of magnesium (-)hydroxycitrate by oral route.

hypertensive rat = experiment: Anti-hypertensive activity in the hypertensive rat; assay type: in vivo; conditions: 500 mg/kg/day oral, one week, vs untreated controls
Experimental: 4) Study of Anti-hypertensive Activity in the Hypertensive Rat
Magnesium (-)hydroxycitrate was tested on 12 hypertensive rats. A batch of 12 other hypertensive rats was used as a control batch. An average reduction in arterial pressure of 17%±3% with respect to the controls (untreated) was noted after one week of treatment at a rate of 500 mg per kilogram per day by oral route.

in vivo = conditions: rat
From the text: The toxicity of magnesium (-)hydroxycitrate is greater than 2 g/kg by intraperitoneal route or than 7 g/kg per os in the rat. That of metals, in particular in the form of salts or mineral oxides (frequently administered as trace elements) is well known.

[8] = result in words, with respect to (-)hydroxycitrate or magnesium
[9] = 500 mg/kg/day oral, 62 days, vs controls

O=C(O)CC(O)(C(=O)O)C(O)C(=O)O (single isomer, unassigned; (-)) [(-)hydroxycitrate, (-)hydroxycitric acid]
protective effect on cell mortality [1]: no protective effect on cell mortality | Reduction in percentages: accumulation of lipids [2]: 16 (±3) % | Reduction in percentages: proliferation of cells [3]: 6 (±4) % | body weight [4]: reduces body weight

O=C(O)C[C@@](O)(C(=O)O)[C@H](O)C(=O)O [Magnesium (-)hydroxycitrate, magnesium (-)hydroxycitrate]
protective effect on cell mortality [1]: more protective effect | Reduction in percentages: accumulation of lipids [2]: 81 (±13) % | effect on accumulation of lipids [2, 8]: very significant increase in the effects | Reduction in percentages: proliferation of cells [3]: 48 (±8) % | effect on cell proliferation [3, 8]: very significant increase in the effects | HDL's, variation ([5]; 4 weeks, vs controls): +8.5% | LDL's, variation ([5]; 4 weeks, vs controls): -22.4% | Total cholesterol, variation ([5]; 4 weeks, vs controls): -19.5% | Total cholesterol/HDL ratio, variation ([5]; 4 weeks, vs controls): -28.2% | HDL's, in words ([5]; after 4 weeks): increase in HDL's | LDL's, in words ([5]; after 4 weeks): reduction in LDL's | HDL's ([5]; after 4 weeks of treatment): 0.246 g/L | LDL's ([5]; after 4 weeks of treatment): 4.00 g/L | Total cholesterol ([5]; after 4 weeks of treatment): 4.47 g/L | Total cholesterol/HDL ratio ([5]; after 4 weeks of treatment): 19.22 | number of lipidic deposits, aortic arch, week 4 ([6]; 4 weeks): 3.5 | number of lipidic deposits, thoracic arch, week 4 ([6]; 4 weeks): 0.0 | number of lipidic deposits, aortic arch, week 8 ([6]; 8 weeks): 1.5 | number of lipidic deposits, thoracic arch, week 8 ([6]; 8 weeks): 0.0 | number of lipidic deposits, in words ([6]; after 4 weeks and after 8 weeks): reduction in the number of lipidic deposits | number of lipidic deposits, total ([6]; sum of aortic and thoracic arch, weeks 4 and 8): 5.0 | lipidic deposits, total, Variation % ([6]; vs controls): -80.4% | Reduction in weight of spleen ([7]; 500 mg/kg/day oral, 62 days): -20.3% | Reduction in weight of surrenal glands ([7]; 500 mg/kg/day oral, 62 days): -21.6% | Reduction in lipidic deposits on the aortic vascular wall ([7]; 500 mg/kg/day oral, 62 days, vs control batch): 46.3% | Reduction in the total cholesterol level [7, 9]: -13.75% | Reduction in the total cholesterol/HDL ratio [7, 9]: -25.72% | increase in HDL levels [7, 9]: +12.5% | Reduction in LDL's ([7]; 500 mg/kg/day oral, 62 days, vs controls, given without sign): 16.36% | weight of heart, liver ([7]; 500 mg/kg/day oral, 62 days, in words): Reduction in weight of heart, liver | overall effect on the hypercholesterolemic rabbit ([7]; non-cytotoxic doses, in words): hypocholesterolemia and anti-atherosclerotic effect | average reduction in arterial pressure (hypertensive rat): 17%±3% | LD50 (in vivo; ip, intraperitoneal, read-out: toxicity, intraperitoneal route): > 2000 mg/kg | LD50 (in vivo; po, per os, read-out: toxicity, per os): > 7000 mg/kg

Magnesium
Reduction in percentages: cell mortality [1]: 6 (±3) % | protective effect on cell mortality [1]: reduces this mortality very slightly | Reduction in percentages: accumulation of lipids [2]: 20 (±9) % | Reduction in percentages: proliferation of cells [3]: 2 (±2) %

Silicon
Reduction in percentages: cell mortality [1]: 28 (±7) % | Reduction in percentages: accumulation of lipids [2]: 32 (±5) % | Reduction in percentages: proliferation of cells [3]: 28 (±6) %
